# Data as given in patent US20230011398A1, “COMBINATION THERAPY APPROACH TO ELIMINATE HIV INFECTIONS” (priority 2019, published 2023).
# Key:
# Type in all cases: cell-based, human
# HIV-1-infected T cells = assay: Annexin V / DEVD-FITC / p24 cell death assay in T cells with or without HIV-1 infection
# Method: Naïve T cells, activated T cells, CMT or EMT with or without infection with HIV-1 (NL4-3, 1 MOI) were cultured for 4 days in the presence of 30 nM CCL19 and 0.3 ng/ml IL-2 for 4 days to establish latent HIV infection. […] The cells were then incubated with 1 μM FITC-DEVD-FMK (Biovision), followed by staining with APC-Annexin V (Biolegend) and intracellular staining with PE-anti-HIV p24. The cells were analyzed by flow cytometry. The percentage of cell death was calculated by the loss of live cells negative for annexin V and DEVD staining by comparing treated and untreated groups: (untreated—treated)/untreated x 100%.
# [1] = tested on: CD4+ T cells with or without infection by HIV-1; assay: Western blot of caspases, Bcl-2 family and LC3 after IDB
# Method: Western blot. PBMC CD4^+ T cells with or without infection by HIV-1 cultured for 4 days with CCL19 as in FIG. 1a. The cells were then cultured in the absence or presence of 0.1 μM IDB for 24 h. The cells were lysed in lysis buffer containing 50 mM HEPES, pH 7.5, 150 mM NaCl, 1 mM EDTA, 1% Triton X-100, 1X protease inhibitor mixture (Roche Applied Science) and 10 μM Benzyloxycarbonyl-Val-Ala-Asp (OMe) fluoromethylketone (zVAD-FMK, ENZO Life Sciences). The cell lysates were determined by the Bradford assay (Bio-Rad). Samples were used for SDS-PAGE and Western blot analyses by probing with different antibodies: monoclonal antibodies to caspase-9 (1:1,000, M054-3, clone 5B4) and caspase-7 (1:1,000, M053-3, clone 4G2) from Medical & Biological Laboratories; polyclonal rabbit antibodies to Atg-7 (1:1,000, 2631S), cleaved caspase-9 (1:1,000, 52873s), caspase-3 (1:1,000, 9665s); cleaved caspase-3 (1:1,000, 9501s), caspase-6 (1:1,000, 9762s), Mc1-1 (1:1,000, 5453s), Bcl-2 (1:1,000, 4223s), Bcl-xL (1:1,000, 2762s), Bak (1:1,000, 12105s), Bax (1:1,000, 2772s), LC3 (1:1000, 4108s) from Cell Signaling Technology and monoclonal antibody to β-Actin (1:50,000, sc-47778, clone C4) from Santa Cruz Biotechnology. The blots were them incubated with HRP-conjugated goat anti-Mouse IgG1 (1:50,000, 1070-05, Southern Biotech) or HRP-conjugated goat anti-Rabbit IgG (1:50,000, ab6721, Abcam) and developed using SuperSignal West Dura Extended Duration Substrate (ThermoFisher).
# [2] = tested on: PBMCs from HIV-1-infected patients; assay: In vitro treatment of PBMCs from HIV-1-infected patients, HIV-1 mRNA by RT-PCR; details: outpatients undergoing ART, no active virus production
# Method: Quantification of HIV-1 mRNA and DNA. HIV-1 mRNA was measured by RT-PCR similar to the described protocols. LTR-GAG was amplified with forward primer (LTR-GAG-AF), 5′-[…]-3′ (SEQ. ID NO. 9) and reverse primer (LTR-GAG-AR), 5′-[…] […]-3′ (SEQ. ID NO. 10), and detected with the LTR-GAG probe, SHEX/[…]/ZEN /[…]/3IABkFQ (SEQ. ID NO. 11). HIV-1 pol-1 was amplified with POL-1 forward primer (POL-1-AF), 5′-[…]-3′ (SEQ. ID NO. 12) and reverse primer (POL-1-AR), 5′-[…]-3′ (SEQ. ID NO. 13), and detected with the pol-1 probe FAM/[…]/ZEN/[…]/3IABKFQ (SEQ. ID NO. 14) in iTaq Universal Probes Supermix (Bio-Rad). The reaction was carried out by iTaq Universal Probes Supermix (Bio-Rad) with a QuantStudio 5 Real-Time PCR System and analyzed with the QuantStudio Design and Analysis Software (Applied Biosystem). Cycle threshold (Ct) values were calibrated using standard curve generated with the standard samples with known amounts of viral copies.
# Treatment of PBMCs from HIV-1-infected patients. PBMCs from HIV-1 patients were resuspended in RPMI complete medium containing and 0.3 ng/ml IL-2 and 50 ng/ml M-CSF and cultured with 0.2 μM BMS-626529, 0.2 μM raltegravir, 25 nM IDB, 20 nM ABT-263, 0.1 μM SAR405 and 0.25 μM JQ1 for 2 days as one cycle of treatments. The cells were then washed and cultures in the same medium for next cycle of culture. […]
# [3] = HIV-1-infected T cells, IDB 24 h
smiles,measurement,setting,value
"CC1=C[C@]23C(=O)[C@@H](C=C(COC(=O)c4ccccc4)[C@@H](O)[C@]2(O)[C@H]1OC(=O)c1ccccc1)[C@H]1[C@@H](C[C@H]3C)C1(C)C [IDB, ingenol 3,20-dibenzoate]","cell death in HIV-1-infected T cells (Annexin V, cleavage of DEVD)","HIV-1-infected T cells; 0.1 μM IDB, 48 h",induced cell death in HIV-1-infected T cells
same,cell death in uninfected cells,"HIV-1-infected T cells; 0.1 μM IDB, 48 h",relatively resistant
same,caspase-3 activities measured by cleavage of DEVD,"HIV-1-infected T cells; HIV-1-infected CMT, 100 nM IDB 24 h",increased caspase-3 activities
same,"cell death in HIV-1-infected CMT, Annexin V staining","HIV-1-infected T cells; NL4-3 1 MOI, 100 nM IDB 24 h",induced cell death
same,expression of anti-apoptotic Bcl-xL and Mcl-1,"[1]; CD4+ T cells not infected with HIV-1, IDB 24 h",increased the expression
same,"activation of caspase-9, caspase-3, caspase-6 and caspase-7",[1]; [3],induced the activation
same,expression of Bcl-xL and Mcl-1,[1]; [3],induced the expression of Bcl-xL and Mcl-1
same,expression of anti-apoptotic Bcl-2,[1]; IDB 24 h,did not change
same,expression of LC3,"[1]; T cell with or without HIV-1 infections, IDB 24 h",induced the expression of LC3
same,increase in Bcl-xL expression in HIV-1-infected cells,"[1]; compared with uninfected controls, IDB 24 h",greater than in uninfected controls
same,HIV-1 detection in PBMCs after stimulation with IDB,[2],could be detected
